Values joined by “and” are separate entries in the source; they are usually repeats but may differ in a detail not shown here. Equal entries are not always repeated. Structures can show the parent of a compound that is named as a salt. Where two headings read alike, the source gives them in different places.
Tests used:
Type in all cases: biochemical
porcine pancreatic PLA2 [1] = target: T1, porcine pancreatic PLA2 (Sus scrofa, UniProt P00592); test: MPLA2 assay: in vitro porcine pancreatic phospholipase A2, mixed micelle design, substrate 2 nM; details: for inhibition at 10 µg/mL: dose 10 μ/ml; for inhibition at 20 µg/mL: dose 20 μ/ml; for IC50 / % Inh.: subs. con. 2
T1 construct: purchased Sigma
T1 sequence (P00592 23-146): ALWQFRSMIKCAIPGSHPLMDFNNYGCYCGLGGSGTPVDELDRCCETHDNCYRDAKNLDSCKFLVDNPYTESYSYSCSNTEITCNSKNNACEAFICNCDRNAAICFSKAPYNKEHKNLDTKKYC
Protocol: (§1) Phospholipase A2 activity was measured by a radiochemical assay in which labeled synthetic phosphatidylcholine substrate is converted by porcine pancreatic PLA2 to free radiolabeled arachidonate and lyso PC. Radiolabeled arachidonate is extracted from the reaction mixture and separated from unreacted substrate by column chromatography or TLC. Radioactivity (cpm) in samples is quantitated by liquid scintillation counting. Specific details are as follows:
(§2) Labeled substrate(1-stearyl-2-^3 H-arachidonylphosphatidylcholine; Amersham, sp. act. 84 (uCi/mmole, 0.025 to 0.2 uCi/assay tube and unlabeled substrates (Avanti), in sufficient quantity to give 20,000 cpm to 50,000 cpm and 10 μM to 1,000 μM final concentration/assay tube are dried under a stream of nitrogen. The PLA2 and mPLA2 assays utilized a […] substrate concentration. The mHPLA2 and HPLA2 assays (vida infra) utilized a 10 μM substrate concentration and the SmPLA2 assay utilized a substrate concentration ranging from 100 to 1000 μm. The substrate is then redissolved in 0.1M tris-HCl buffer, pH 9.0 containing 10 mM CaCl2 and 10 mM Na taurocholate detergent. The mixture is sonicated in a Kontes Sonifier to yield a homogeneous dispersion. The "mixed" micellar substrate is clear. An aliquot is reserved for a cpm count (total substrate). The total reaction volume is 500 μL; siliconized glassware or plasticware is used throughout. Enzyme (Sigma, sp. act.>690 U/mg protein and preferably 900 U/mg protein) is diluted 1:750 or 1:1000 in 0.1M tris-HCl buffer, pH 9.0 (without Ca^++ and detergent). Enzyme dilution depends on substrate concentration and required enzyme concentration.
(§3) The substrate in buffer is kept on ice until the reaction is started. The reaction is started by adding 10 μL of diluted enzyme solution to 490 μL of micellar substrate solution. Samples are incubated in a 37° C. water bath for 15 minutes with gentle mixing. The reaction is terminated by the addition of 100 μL of 1M fresh trichloroacetic acid (TCA) solution and chilling the tubes on ice for 30 minutes.
(§4) Samples (600 μL) are extracted with 3 ml CHCl3 /MeOH (2:1) for thin layer chromatography or in hexane/ether (9:1) for column chromatography. The phases are separated by gentle centrifugation at 700 rpm×5'. The organic phase is recovered.
(§5) Labeled arachidonate extracted with CHCl3 /MeOH is separated on silica gel G TLC plates (Analtech). Twenty μL of a 2 mg/ml internal standard solution of arachidonic acid (Sigma) is combined with 2-3 ml of the organic phase. The entire mixture is dried under nitrogen and redissolved in 50 μL of CHCl3 /MeOH (2:1). A 20 μL sample is counted in 10 ml of Beckman Redi-solv HP and spotted on silica gel G plates. The solvent system used to develop the plate is CHCl3 /MeOH/13.5N NH3 /H2 O (70:30:4:1). Plates are developed in a glass chamber for 1-11/2 hours, air dried, and the spots visualized in an iodine vapor chamber. Standards of phosphatidylcholine, lyso PC, and arachidonic acid (Sigma) are made as 2 mg/ml stocks in CHCl3 /MeOH (2:1) and spotted on plates. Spots corresponding to arachidonate and phospholipid are scraped and counted in 10 ml Beckman Redi-Solv HP scintillation fluid.
(§6) Samples are extracted with hexane/ether and the upper organic phase recovered. An aliquot is applied to a Silicar CC4 (Malincrodt) column. Columns are prepared using 1 ml of a 1:1 slurry of silicar CC4 in hexane/ether in a Pasteur pipet (approx. 2 cm height). Columns are rinsed with 500 μL of hexane/ether before adding the sample (300-600 μL) to the column. Columns are eluted with a total of 6 ml of hexane/ether. The 6 ml sample is counted in 10 ml of Beckman Redi-Solv HP scintillation fluid.
(§7) or the phospholipase A2 assay, compounds are prepared as 1 mg/ml stock solutions in MeOH and diluted appropriately in PBS. […]

porcine pancreatic PLA2 [2] = target: T1, porcine pancreatic PLA2; test: MHPLA2 assay: in vitro porcine pancreatic phospholipase A2, mixed micelle design, [s]=10 μm
Protocol: as §1, §2, §3, §4, §5, §6, §7

porcine pancreatic PLA2 [3] = target: T1, porcine pancreatic PLA2; test: PLA2 assay: in vitro porcine pancreatic phospholipase A2, preincubation of drug+enzyme, substrate 2 nM; details: preincubation, subs. con. 2; for inhibition at 25 µg/mL: dose 25 μ/ml; for inhibition at 50 µg/mL: dose 50 μ/ml
Protocol: as §1, §2, §3, §4, §5, §6
or the phospholipase A2 assay, compounds are prepared as 1 mg/ml stock solutions in MeOH and diluted appropriately in PBS.

[4] = dose 10 μ/ml, subs. con. 10, read-out: % Inh.
[5] = dose 25 μ/ml, subs. con. 10, read-out: % Inh.
[6] = dose 10 μ/ml, read-out: % Inh. Avg.
[7] = dose 25 μ/ml, subs. con. 10, read-out: % Inh. Avg.
[8] = read-out: IC50 Avg. (converted)

| Structure (SMILES) | inhibition at 10 µg/mL (porcine pancreatic PLA2 [1]; subs. con. 2, read-out: % Inh.) [%] | inhibition at 20 µg/mL (porcine pancreatic PLA2 [1]; subs. con. 2, read-out: % Inh.) [%] | IC50 (porcine pancreatic PLA2 [1]) [µM] | inhibition at 10 µg/mL (porcine pancreatic PLA2 [2]; [4]) [%] | inhibition at 10 µg/mL (porcine pancreatic PLA2 [3]; dose 10 μ/ml, read-out: % Inh.) [%] | inhibition at 20 µg/mL (porcine pancreatic PLA2 [3]; dose 20 μ/ml, read-out: % Inh.) [%] | IC50 (porcine pancreatic PLA2 [3]; read-out: IC50 (converted)) | inhibition at 25 µg/mL (porcine pancreatic PLA2 [2]; [7]) [%] | other results |
| --- | --- | --- | --- | --- | --- | --- | --- | --- | --- |
| CCCCCCCCCCCCCCCCOCC(COP(=O)([O-])OCC[N+](C)(C)C)CP(=O)(OCC)OCC (stereo not drawn) | 36 | 60 | 27.3 | 18 | 71 | 81 | 8.12 µM | – | inhibition at 20 µg/mL (porcine pancreatic PLA2 [2]; dose 20 μ/ml, subs. con. 10): 44%; inhibition at 25 µg/mL (porcine pancreatic PLA2 [2]; [5]): 45%; IC50 (porcine pancreatic PLA2 [2]; subs. con. 10, read-out: IC50 (converted)): 91.3 µM and 265 µM; inhibition at 10 µg/mL (porcine pancreatic PLA2 [3]; [6]): 74% |
| CCCCCCCCCCCCCCCCOCC(COP(=O)([O-])OCC[N+](C)(C)C)OP(=O)(OC)OCCCCC (single isomer, unassigned) [3,5,8,10-Tetraoxa-4,9-diphosphapentadecan-1-aminium, 7-[(hex] [3,5,8,10-Tetraoxa-4,9-diphosphapentadecan-1-aminium, 7-[(hexadecyloxy)methyl]-4-hydroxy-9-methoxy-N,N,N-trimethyl-, hydroxide, 4-(inner salt),4,9-dioxide, more polar isomer] | – | – | – | – | – | – | – | – | % Inh. (porcine pancreatic PLA2 [1]; dose 25 μ/ml): STIM; % Inh. (porcine pancreatic PLA2 [3]; dose 10 μ/ml): 82%; % Inh. (porcine pancreatic PLA2 [3]; dose 20 μ/ml): 89% |
| CCCCCCCCCCCCCCCCOCC(COP(=O)([O-])OCC[N+](C)(C)C)OP(=O)(OC)OCCCCC (single isomer, unassigned) [3,5,8,10-Tetraoxa-4,9-diphosphapentadecan-1-aminium, 7-[(hexadecyloxy)methyl]-4-hydroxy-9-methoxy-N,N,N-trimethyl-, hydroxide, 4-(inner salt),4,9-dioxide, more polar isomer] | – | – | – | 0 | – | – | 3.87 µM | – | – |
| CCCCCOCC(COP(=O)([O-])OCC[N+](C)(C)C)OP(=O)(O)OCCCCC (single isomer, unassigned; less polar) [3,5,8,10-Tetraoxa-4,9-diphosphapentadecan-1-aminium, 4,9-dihydroxy-N,N,N-trimethyl-7-[(pentyloxy)methyl]-, hydroxide, 4-(inner salt), 4,9-dioxide, less polar isomer] | – | – | – | – | 20 | 17 | – | – | % Inh. (porcine pancreatic PLA2 [1]; dose 25 μ/ml): STIM; inhibition at 25 µg/mL (porcine pancreatic PLA2 [2]; [5]): 12% |
| CCCCCCCCCCCCCCCCOCC(COP(=O)([O-])OCC[N+](C)(C)C)OCC(=O)O (stereo not drawn) [2,5,7-Trioxa-6-phosphanonan-9-aminium, 1-carboxy-3-[(hexadecyloxy)methyl]-6-hydroxy-N,N,N-trimethyl-, hydroxide, inner salt, 6-oxide] | – | – | – | 6 | – | 44 | – | 30 | – |
| CCCCCCCCCCCCCCCCOCC(COP(=O)([O-])OCC[N+](C)(C)C)OP(=O)(O)OCCCCCCCCCCCCCCCC (stereo not drawn) [3,5,8,10-Tetraoxa-4,9-diphosphahexacosan-1-aminium, 7-[(hexa] [3,5,8,10-Tetraoxa-4,9-diphosphahexacosan-1-aminium, 7-[(hexadecyloxy)methyl]-4,9-dihydroxy-N,N,N-trimethyl-, hydroxide, 4-inner salt), 4,9-dioxide] | – | – | – | – | – | – | – | – | % Inh. (porcine pancreatic PLA2 [2]; dose 10 μ/ml, subs. con. 10): STIM; % Inh. (porcine pancreatic PLA2 [2]; dose 25 μ/ml, subs. con. 10): STIM |
| CCCCCCCCCCCCCCCCOC[C@@H](COP(=O)([O-])OCC[N+](C)(C)C)OP(=O)(O)OCCCCCCCCCCCCCCCC [3,5,8,10-Tetraoxa-4,9-diphosphahexacosan-1-aminium, 7-[(hexadecyloxy)methyl]-4,9-dihydroxy-N,N,N-trimethyl-, hydroxide, 4-(inner salt), 4,9-dioxide, (7S)] | – | – | – | – | – | – | – | – | % Inh. (porcine pancreatic PLA2 [2]; dose 10 μ/ml, subs. con. 10): STIM; % Inh. (porcine pancreatic PLA2 [2]; dose 25 μ/ml, subs. con. 10): STIM; inhibition at 10 µg/mL (porcine pancreatic PLA2 [3]; [6]): 17%; inhibition at 20 µg/mL (porcine pancreatic PLA2 [3]; dose 20 μ/ml, read-out: % Inh. Avg.): 16%; inhibition at 25 µg/mL (porcine pancreatic PLA2 [3]; read-out: % Inh.): 8% |
| CCCCCCCCCCCCCCCCOCC(COP(=O)([O-])OCC[N+](C)(C)C)OP(=O)(OC)OCCCCCCCCCCCCCCCC (stereo not drawn) [3,5,8,10-Tetraoxa-4,9-diphosphahexacosan-1-aminium, 7-[(hexadecyloxy)methyl]-4-hydroxy-9-methoxy-N,N,N-trimethyl-, hydroxide, inner salt, 4,9-dioxide] | – | – | – | – | – | – | 4 µM and 3.5 µM | 62 | IC50 (porcine pancreatic PLA2 [3]; [8]): 3.75 µM |
| CCCCCCCCCCCCCCCCOCC(COP(=O)([O-])OCC[N+](C)(C)C)OP(=O)(OC)OCCCCCCCCCCCCCCCC (stereo not drawn) [3,5,8,10-Tetraoxa-4,9-diphosphahexacosan-1-aminium, 7-[(hexadecyloxy)methyl]-4-hydroxy-9-methoxy-N,N,N-trimethyl-hydroxide, inner salt, 4,9-dioxide] | – | – | – | 0 | 61 | 65 | 7.5 µM and 5.62 µM and 7.25 µM | – | inhibition at 25 µg/mL (porcine pancreatic PLA2 [3]; read-out: % Inh.): 71%; inhibition at 25 µg/mL (porcine pancreatic PLA2 [3]; read-out: % Inh. Avg.): 77%; inhibition at 50 µg/mL (porcine pancreatic PLA2 [3]; read-out: % Inh.): 73% and 88%; inhibition at 50 µg/mL (porcine pancreatic PLA2 [3]; read-out: % Inh. Avg.): 80%; IC50 (porcine pancreatic PLA2 [3]; [8]): 6.75 µM |
| CCCCCCCCCCCCCCCCOCC(COP(=O)([O-])OCC[N+](C)(C)C)OC(=O)CBr (stereo not drawn) [3,5,9-Trioxa-4-phosphapentacosan-1-aminium, 7-[(bromoacetyl)oxy]-4-hydroxy-N,N,N-trimethyl-, hydroxide, inner salt, 4-oxide] | 52 | 85 | 8.13 | 35 | – | – | – | 50 | inhibition at 10 µg/mL (porcine pancreatic PLA2 [2]; dose 10 μ/ml, subs. con. 10, read-out: % Inh. Avg.): 32%; inhibition at 25 µg/mL (porcine pancreatic PLA2 [2]; [5]): 78%; IC50 (porcine pancreatic PLA2 [2]; subs. con. 10, read-out: IC50 Avg. (converted)): 83 µM |
| CCCCCCCCCCCCCCCCOCC(COP(=O)([O-])OCC[N+](C)(C)C)CC1CO1 (stereo not drawn) [4-Hydroxy-N,N,N-trimethyl-7-(oxiranylmethyl)-3,5,9-trioxa-4-phosphapentacosan-1-aminium, hydroxide, inner salt, 4-oxide] | – | – | – | – | 71 | 88 | 4.6 µM | – | inhibition at 25 µg/mL (porcine pancreatic PLA2 [1]; dose 25 μ/ml, subs. con. 2, read-out: % Inh.): 85%; inhibition at 10 µg/mL (porcine pancreatic PLA2 [3]; [6]): 74% |
| CCCCCCCCCCCCCCCCOCC(O)(COP(=O)([O-])OCC[N+](C)(C)C)CC(N)CC (stereo not drawn) [7-(2-Aminobutyl)-4,7-dihydroxy-N,N,N-trimethyl-3,5,9-trioxa-4-phosphapentacosan-1-aminium, hydroxide, inner salt, 4-oxide] | 25 | 61 | 34.7 | – | 89 | 94 | 2.35 µM | – | – |
| CCCCCCCCCCCCCCCCOCC(COP(=O)([O-])OCC[N+](C)(C)C)OC(=O)CCl (stereo not drawn) [7-[(Chloroacetyl)oxy]-4-hydroxy-N,N,N-trimethyl-3,5,9-trioxa-4-phosphapentacosan-1-aminium, hydroxide, inner salt, 4-oxide] | 46 | 72 | 17.4 | 27 | – | – | – | 3 | – |

Reference: US5208223A, “Phosphocholine derivative inhibitors of phospholipase A2” (American Cyanamid Company, priority 1992, dated 1993)
